Read-outs that look alike come from different tables or passages of the source.
What was measured:
[1] = biological target: T1, caspase-1 (ICE-Interleukin-β-converting enzyme), rCaspase-1 (Homo sapiens, UniProt P29466); experiment: Caspase-1 activity enzymatic assay with colorimetric substrate Ac-YVAD-pNA; assay type: biochemical; conditions: AS101 2.5, 5, 10 μM; 1 hour, 30° C., 405 nm; FIG. 1
T1 construct: purchased Biomol International Industries L.P. Canada
T1 sequence (P29466 120-297 limits assumed): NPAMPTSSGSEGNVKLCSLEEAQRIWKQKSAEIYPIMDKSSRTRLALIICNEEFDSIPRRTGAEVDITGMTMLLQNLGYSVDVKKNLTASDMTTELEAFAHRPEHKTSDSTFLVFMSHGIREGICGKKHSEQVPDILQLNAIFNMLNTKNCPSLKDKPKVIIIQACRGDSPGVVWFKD
T1 sequence (P29466 317-404 limits assumed): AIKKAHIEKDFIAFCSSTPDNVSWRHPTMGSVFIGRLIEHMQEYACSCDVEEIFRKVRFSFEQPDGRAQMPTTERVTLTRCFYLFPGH
Protocol: DTT, which is present in the commercial enzyme solution, interacts with AS101 and thus would interfere with the inhibition studies. Therefore removal of DTT from the enzyme solution prior to the enzymatic assay was necessary. Gel permeation chromatography was carried out at 4° C. 50 μl solution of commercial activated rCaspase-1 was loaded on a 1×15 cm Sephadex G-15 column (Pharmacia), preequilibrated with assay buffer containing: 50 mM Hepes, 100 mM NaCl, 0.1% CHAPS, 1 mM EDTA, 10% Glycerol at pH 7.4. The enzyme was eluted with the same buffer (degassed) at 0.5 ml/minute and 500 μl fractions were collected. The enzyme-substrate reaction was measured continuously with 1 min. intervals for a total time of 1 hour at 30° C. and was read at 405 nm. The total volume of the reaction was 100 μl and contained as following: 50 μl rCaspase-1 (0.8 U/μl), 25 μl colorimetric substrate (Ac-YVAD-pNA, 200 μM), 25 μl of AS101 at various concentrations (2.5 μM, 5 μM, 10 μM) in assay buffer.
AS101 was tested for its possible inhibitory activity towards a member of the cysteine protease family, caspase-1 (ICE-Interleukin-β-converting enzyme). The enzymatic reaction was carried out with caspase-1 specific colorimetric substrate, Ac-YVAD-pNA, and in the absence or the presence of AS101 at different concentrations. The enzyme activity was tested for 1 hour and measured at 405 nm. […]

[2] = system: IL-18 secretion by human PBMC; experiment: SAC-induced secretion of IL-18 by PBMC (ELISA); assay type: cell-based
Protocol: (§1) Human peripheral blood mononuclear cells (PBMC) were isolated from randomly selected healthy donors by Ficoll-Hypaque (Pharmacia, Piscataway, N.J.) density-gradient centrifugation. PBMC were adjusted to 2.5×10^6 cells/ml and cultured in enriched RPMI 1640 medium (Biological industries, Kibbutz Beit Haemek, Israel) with 10% FCS (Biological industries) at 37° C. and 7% CO2.
(§2) Cells were first treated with various concentrations of AS101 and after 1 hour SAC was added. After 24 hours, supernatants were collected and evaluated for cytokine content. Viability at the end of these experiments, as assessed by tryptan blue exclusion method, was always found to be >95%.
(§3) The R&D Systems (Minneapolis, Minn.) IL-18 and IL-1β ELISA kits were used for the quantitative measurement of these cytokines either in supernatants or in mice sera.
(§4) PBMC (2.5×10^6 cells/ml) were treated with various concentrations of AS101 and after 1 hour were stimulated with SAC (10^−3 V/V). Results represent means±SE of three experiments **p<0.05 decrease vs SAC; *p<0.01 decrease vs SAC. Optimal concentration of SAC for cytokine secretion stimulation was 10^−3 v/v (data not shown).

[3] = system: IL-1β secretion by human PBMC; experiment: SAC-induced secretion of IL-1β by PBMC (ELISA); assay type: cell-based
Protocol: as §1, §2, §3, §4

[4] = system: active form of IL-18 in human HaCat keratinocytes; experiment: Western blot of intracellular active form of IL-18 in HaCat keratinocytes; assay type: cell-based; conditions: AS101 1 μg/ml preincubated 2 hours, FIG. 3
Protocol: Human HaCat keratinocytes were adjusted to 1×10^6 cells/ml and cultured at 37° C. and 7% CO2 in enriched Dulbecco's modified Eagle's medium (DMEM)(Biological industries, Kibbutz Beit Haemek, Israel), supplemented with 10% FCS (Biological industries).
Total cell extracts were prepared by suspension in ice-cold lysis buffer containing 50 mM Tris (pH 8.0), 150 mM NaCl, 1% NP-40, 0.1% SDS, 5 mM EDTA, 0.2 mM PMSF, 50 mM NaF, […] sodium vanadate, […]. Cell lysates were boiled for 5 min and electrophoresed on 15% SDS-PAGE and were then blotted with monoclonal IL-18 antibodies (R&D Systems, Minneapolis, Minn.). Blots were developed using horseradish peroxidase-conjugated secondary antibodies and the ECL detection system (Amersham Pharmacia Biotech).
IL-18 is […] produced by keratinocytes after treatment with LPS or PMA. In order to determine whether the inhibitory effect of AS101 on the formation of the active form of IL-18 is consistent and will repeat itself in another type of cell culture, Western Blot analysis of total cellular proteins from human HaCat keratinocytes was performed using anti-IL-18 antibodies. […]
Cultured keratinocytes (1×10^6 cells/ml) were preincubated for 2 hours with AS101 (1 μg/ml) and then treated with PMA or LPS. Expression of IL-18 was assessed by WB analysis while α-tubulin was used as internal control. […]

[5] = system: IL-18 mRNA in human HaCat keratinocytes; experiment: IL-18 mRNA levels in HaCat cells (RT-PCR); assay type: cell-based; conditions: AS101 1 μg/ml preincubated 2 hours, FIG. 4b
Protocol: Total RNA was prepared from treated or non treated human keratinocytes by using Tri-reagent (Sigma Aldrich, Rehovot, Israel). Oligo(dt) primed cDNA was synthesized using 2 μg of total RNA. mRNA/cDNA specific cytokine primer pairs were designed and PCR was performed using the following primer pairs (5 μM each): IL-18 (product 558 bp): 178-201 [5′-[…]-3′], 735-759 [5′-[…]-3′]. Cycling conditions were 95° C., 4 minutes; 94° C., 1 minute, 65° C., 1 minute; and 72° C., 1 minute for 29 cycles. GPDH (glyceraldehyde-phosphate-dehydrogenase, product 500 bp) was used as a control: [5′-[…]-3′],[5′-[…]-3′]. The amplified products were visualized using ethidium bromide staining.
Changes at the IL-18 mRNA level were studied when keratinocytes were pretreated with AS101 (1 μg/ml) using optimal concentrations of PMA (10 ng/ml) and LPS (50 ng/ml). Total RNA was isolated from whole cell lysates. GAPDH was used as internal control. Cultured keratinocytes (1×10^6 cells/ml) were either untreated or treated with PMA at 5 ng/ml and 10 ng/ml (line 2 and 3 respectively) and with LPS at 40 ng/ml and 50 ng/ml (line 4 and 5 respectively).
PCR products were amplified for 29 cycles.

[6] = system: IL-18 secretion by human PBMC; experiment: Role of nitric oxide: IL-18 inhibition in PBMC with L-NAME; assay type: cell-based; conditions: L-NAME 20 nM 2 hours before AS101 0.5 μg/ml; SAC; 24 hours; FIG. 5
Protocol: as §3
L-NAME/D-NAME (20 nM) were delivered to PBMC (2.5×10^6 cells/ml)2 hours before AS101 (0.5 μg/ml). SAC (10^−3 v/v) was added 1 hour following AS101. Supernatants were collected after 24 hours and evaluated for IL-18 levels.

[7] = system: IL-18 secretion by human PBMC; experiment: Role of IFN-γ: IL-18 inhibition in PBMC with IFN-γ neutralizing antibody; assay type: cell-based; conditions: anti IFN-γ antibody 0.1 μg/ml 2 hours before AS101 0.5 μg/ml; SAC; 24 hours; FIG. 6
Protocol: as §3
In order to investigate the possibility that enhancement of IFN-γ levels by AS101 might have a synergistic effect on IL-18 inhibition, rhIFN-γ neutralizing antibody (0.1 μg/ml) was delivered to PBMC (2.5×10^6 cells/ml) 2 hours before AS101 (0.5 μg/ml). SAC (10^−3 v/v) was added 1 hour following AS101. Supernatants were collected after 24 hours and evaluated for IL-18 levels.

IL-18 = IL-18 levels in LPS-induced septic mice; assay type: in vivo, c57BL/6J mice; conditions: 24 hours after LPS, FIG. 7a
Protocol: (§5) For serum cytokine evaluation, PBS or AS101 was injected intraperitoneally (i.p.) 2 hours following LPS treatment. For survival experiments AS101 was injected i.p. daily at various concentrations starting 1 hour and up to 24 hours following LPS until the end of the experiment.
as §3
(§6) PBS (control) and AS101 at various concentrations were injected into c57BL/6J mice 2 hours following induction of sepsis by LPS (0.5 mg/mouse) treatment. 24 hours after LPS injection, mice were sacrificed and evaluated for plasma concentration of these cytokines in order to determine whether AS101 can inhibit production of IL-18 and IL-1β in vivo.

IL-1β = IL-1β levels in LPS-induced septic mice; assay type: in vivo, c57BL/6J mice; conditions: 24 hours after LPS, FIG. 7b
Protocol: as §5, §3, §6

LPS-induced septic mice = experiment: Survival of LPS-induced septic mice; assay type: in vivo
Protocol: as §5
Data are presented as mean±SE. For comparisons of means of the various groups, the pairwise t test was used. Survival curves were statistically analyzed by comparing the cumulative percentage of survival using the Gehan-Wilcoxon test.
In order to study the relationship between the above in vitro and in vivo results and the effect of AS101 on survival of mice following induction of sepsis, AS101 at a concentration of 10 μg/mouse was injected into LPS-induced septic mice at various time points after LPS (0.35 mg/mouse) treatment. Survival was monitored for 9 days.

PBMC = experiment: Viability of treated cells by trypan blue exclusion; assay type: cell-based, human; conditions: cells treated with various concentrations of AS101, SAC, 24 hours
Protocol: as §2

[8] = system: human HaCat keratinocytes; experiment: IL-18 production in HaCat keratinocytes after AS101 treatment alone; assay type: cell-based
Protocol: IL-18 production has a self-regulating negative feedback loop. This cytokine can down regulate its own production by inducing the production of a native inhibitor, IL-18BP, through an IFN-γ dependent mechanism. Since AS101 has been previously shown to increase IFN-γ due to the direct inhibition of the […], studies were carried out to determine whether the inhibitory effect of AS101 results from induction of IL-18BP directly and/or whether neutralization of IFN-γ would abrogate the inhibitory effect of AS101 on IL-18.

cysteine proteases = conditions: via a catalytic thiol oxidation; Inorg. Chem. 37: 1704-1712, 1998; cited from earlier work
serine proteases = conditions: Inorg. Chem. 37: 1704-1712, 1998; cited from earlier work
metallo proteases = conditions: Inorg. Chem. 37: 1704-1712, 1998; cited from earlier work
aspartic proteases = conditions: Inorg. Chem. 37: 1704-1712, 1998; cited from earlier work
[9] = rats, cited from earlier work
[10] = AS101 5 μg/mouse i.p. 2 hours after LPS 0.5 mg/mouse
[11] = AS101 10 μg/mouse i.p. 2 hours after LPS 0.5 mg/mouse

Cl[TeH]1(Cl)(Cl)OCCO1 [AS101, ammonium trichloro(dioxyethylene-O,O′)tellurate]
effect on ICE activity (percent residual enzymatic activity) [1]: inhibits ICE activity directly, in a concentration-dependant manner | SAC-induced secretion levels of IL-18 ([2]; AS101 1 hour before SAC 10^-3 v/v, after 24 hours, FIG. 2a): decrease SAC-induced secretion levels | concentration from which the decrease in IL-18 secretion is significant (p<0.05) ([2]; SAC, 24 hours): ≥ 0.5 µg/mL | SAC-induced secretion levels of IL-1β ([3]; AS101 1 hour before SAC 10^-3 v/v, after 24 hours, FIG. 2b): decrease SAC-induced secretion levels | concentration from which the decrease in IL-1β secretion is significant (p<0.05) ([3]; SAC, 24 hours): ≥ 0.5 µg/mL | amounts of the active form of IL-18 ([4]; then LPS 50 ng/ml): produced a decrease in the amounts of the active form of IL-18 | amounts of the active form of IL-18 ([4]; then PMA 10 ng/ml): produced a decrease in the amounts of the active form of IL-18 | IL-18 mRNA levels ([5]; then LPS 50 ng/ml): Changes in mRNA levels were not detected | IL-18 mRNA levels ([5]; then PMA 10 ng/ml): Changes in mRNA levels were not detected | inhibitory effect on IL-18 secretion in the presence of NOS inhibitor L-NAME [6]: not diminished | IL-18 inhibition after neutralization of IFN-γ [7]: does not abrogate IL-18 inhibition | IL-18 level in septic mice (IL-18; [10]): significantly inhibited | IL-18 level in septic mice (IL-18; [11]): significantly inhibited | IL-1β level in septic mice (IL-1β; [10]): significantly inhibited | IL-1β level in septic mice (IL-1β; [11]): significantly inhibited | effect on survival of septic mice (LPS-induced septic mice; AS101 10 μg/mouse i.p. daily, injected after LPS 0.35 mg/mouse, survival monitored 9 days, FIG. 8): beneficial effect | optimal dose for survival (LPS-induced septic mice; injected 6 hours following LPS and thereafter every day): 10 μg/mouse | viability at the end of the experiments (PBMC): > 95% | induction of IL-18 production by AS101 treatment [8]: not able to induce IL-18 production | inhibition of cysteine proteases (cysteine proteases): inhibits cysteine proteases | inhibition of serine proteases (serine proteases): no inhibition | inhibition of metallo proteases (metallo proteases): no inhibition | inhibition of aspartic proteases (aspartic proteases): no inhibition | LD50 relative to the immunologically effective dose ([9]; intramuscular administration): 500-1000 folds | LD50 relative to the immunologically effective dose ([9]; intravenous administration): 500-1000 folds
